# Test results as given in patent US9549935B2, “Methods and compositions for treating migraines using noribogaine” (DemeRx, Inc., priority 2014, dated 2017).
# Test: Plasma noribogaine glucuronide pharmacokinetics after single oral noribogaine doses in healthy volunteers
# Format: in vivo, human
# Conditions: for AUC0-216 of noribogaine glucuronide / AUC0-∞ of noribogaine glucuronide / Cmax of noribogaine glucuronide / Tmax of noribogaine glucuronide / t1/2 of noribogaine glucuronide: healthy volunteers, mean (SD), n = 6
# Experimental: Blood was obtained for pharmacokinetic assessments pre-dose and then at 0.25, 0.5, 0.75, 1.0, 1.25, 1.5, 2, 2.5, 3, 3.5, 4, 4.5, 5, 5.5, 6, 7, 8, 10, 12, 14, 18, 24, 30, 36, 48, 60, 72, 96, 120, 168 and 216 hours post-dose. Samples were centrifuged and plasma stored at −70° C. until analyzed. Block 24 hour urine collections were obtained following study drug administration for the 30 and 60 mg cohorts. Aliquots were frozen at −20° C. until analyzed.
# Plasma noribogaine glucuronide concentrations were determined in the 30 mg and 60 mg dose groups using a validated sensitive LCMSMS method. Sample preparation involved deproteinization of plasma samples with acetonitrile, drying the samples under a stream of nitrogen and reconstitution of sample with acetonitrile:B.P. water (5:95, v/v) containing 0.1% (v/v) formic acid. The compounds were separated by a 150×2.0 mm Luna 5 μm C18 column and detected with a triple-quadrupole API 4000 or 5000 mass spectrometer using electrospray ionization in positive mode and multiple reaction monitoring. Noribogaine-d4 was used as the internal standard. The precursor-product ion transition values for noribogaine glucuronide were m/z 472.8→297.3, and for the internal standard noribogaine-d4 m/z 301.1→122.2. Analyst® software was used for data acquisition and processing. The ratio of the peak area of noribogaine glucuronide to the internal standard noribogaine-d4 was used for calibration and measurement of the unknown concentration of noribogaine glucuronide. The LLOQ was 0.050 ng/ml noribogaine glucuronide. The calibration curve was between 0.050 and 6.400 ng/ml noribogaine glucuronide. Mobile phases was the same as method A. Binary flow: Initial concentration was 6% mobile phase B; hold at 6% mobile phase B for 0.5 minutes and linear rise to 90% mobile phase B over 2 minutes; hold at 90% mobile phase B for 1 minute and then drop back to 6% mobile phase B over 0.01 minute. Equilibrate system for 3.5 minutes. Total run time was 7 minutes. The within- and between-day assay precision was <11%, and the within- and between-day assay accuracy was <10%.
# Noribogaine and noribogaine glucuronide concentrations above the limit of quantification were used to calculate pharmacokinetic parameters using model-independent methods. The maximum plasma concentration (Cmax) and time to maximum plasma concentration (Tmax) were the observed values. Plasma concentration data in the post-distribution phase of the plasma concentration-time plot were fitted using linear regression to the formula ln C=ln Co−t.Kel, where Co was the zero-time intercept of the extrapolated terminal phase and Kel was the terminal elimination rate constant. […] The area under the concentration-time curve (AUC) from time zero to the last determined concentration-time point (tf) in the post distribution phase was calculated using the trapezoidal rule. The area under the curve from the last concentration-time point in the post distribution phase (Ctf) to time infinity was calculated from AUCt-∞=Ctf/Kel. The concentration used for Ctf was the last determined value above the LLOQ at the time point. The total AUC0-∞ was obtained by adding AUCtf and AUCt-∞. Noribogaine apparent clearance (CL/F) was determined using the formula CL/F=Dose/AUC0-∞×1000, and apparent volume of distribution (Vd/F) was determined using the formula Vd/F=(CL/F)/Kel. Total urine noribogaine was the sum of both analytes.
# [1] = 30 mg and 60 mg noribogaine dose groups, plasma
# [2] = after single oral 30 mg noribogaine, plasma
# [3] = after single oral 60 mg noribogaine, plasma
smiles,measurement,setting,value
"CC[C@H]1C[C@@H]2C[C@H]3c4[nH]c5ccc(OC6OC(C(=O)O)C(O)C(O)C6O)cc5c4CCN(C2)[C@@H]13 (some centres unmarked) [Noribogaine glucuronide, noribogaine glucuronide]",Mean half-life of plasma noribogaine glucuronide,30 mg and 60 mg noribogaine dose groups,21 to 23 h
same,time by which noribogaine glucuronide was detected in all subjects,[1],≤ 0.75 h
same,time of peak noribogaine glucuronide concentrations after noribogaine dosing,[1],3 to 4 h
same,AUC0-216 of noribogaine glucuronide,[2],25.7 (9.1) ng · hr/ml
same,AUC0-∞ of noribogaine glucuronide,[2],25.8 (9.3) ng · hr/ml
same,Cmax of noribogaine glucuronide,[2],1.8 (0.6) ng/ml
same,Tmax of noribogaine glucuronide,[2],3.0 (0.6) hr
same,t1/2 of noribogaine glucuronide,[2],20.6 (4.9) hr
same,AUC0-216 of noribogaine glucuronide,[3],65.0 (21.5) ng · hr/ml
same,AUC0-∞ of noribogaine glucuronide,[3],67.1 (21.9) ng · hr/ml
same,Cmax of noribogaine glucuronide,[3],4.1 (1.2) ng/ml
same,Tmax of noribogaine glucuronide,[3],3.8 (1.2) hr
same,t1/2 of noribogaine glucuronide,[3],23.1 (3.0) hr
same,proportion of noribogaine glucuronide Cmax and AUC relative to noribogaine,both dose groups (30 mg and 60 mg),3-4%
